In article PMC7026418, “The kinase polypharmacology landscape of clinical PARP inhibitors” (Scientific Reports, 2020):
Where two headings read alike, the source gives them in different places. Blank lines part the entries; values can stand above or below the compound they belong to.

Columns and labels:
Assay in all cases: biochemical
Parameters in all cases: DiscoveRx KINOMEscan active site-directed competition binding; percent of control kinase bound to immobilised ligand
MYO3B = molecular target: T1, MYO3B (Homo sapiens, UniProt Q8WXR4)
T1 sequence (Q8WXR4 1-1341): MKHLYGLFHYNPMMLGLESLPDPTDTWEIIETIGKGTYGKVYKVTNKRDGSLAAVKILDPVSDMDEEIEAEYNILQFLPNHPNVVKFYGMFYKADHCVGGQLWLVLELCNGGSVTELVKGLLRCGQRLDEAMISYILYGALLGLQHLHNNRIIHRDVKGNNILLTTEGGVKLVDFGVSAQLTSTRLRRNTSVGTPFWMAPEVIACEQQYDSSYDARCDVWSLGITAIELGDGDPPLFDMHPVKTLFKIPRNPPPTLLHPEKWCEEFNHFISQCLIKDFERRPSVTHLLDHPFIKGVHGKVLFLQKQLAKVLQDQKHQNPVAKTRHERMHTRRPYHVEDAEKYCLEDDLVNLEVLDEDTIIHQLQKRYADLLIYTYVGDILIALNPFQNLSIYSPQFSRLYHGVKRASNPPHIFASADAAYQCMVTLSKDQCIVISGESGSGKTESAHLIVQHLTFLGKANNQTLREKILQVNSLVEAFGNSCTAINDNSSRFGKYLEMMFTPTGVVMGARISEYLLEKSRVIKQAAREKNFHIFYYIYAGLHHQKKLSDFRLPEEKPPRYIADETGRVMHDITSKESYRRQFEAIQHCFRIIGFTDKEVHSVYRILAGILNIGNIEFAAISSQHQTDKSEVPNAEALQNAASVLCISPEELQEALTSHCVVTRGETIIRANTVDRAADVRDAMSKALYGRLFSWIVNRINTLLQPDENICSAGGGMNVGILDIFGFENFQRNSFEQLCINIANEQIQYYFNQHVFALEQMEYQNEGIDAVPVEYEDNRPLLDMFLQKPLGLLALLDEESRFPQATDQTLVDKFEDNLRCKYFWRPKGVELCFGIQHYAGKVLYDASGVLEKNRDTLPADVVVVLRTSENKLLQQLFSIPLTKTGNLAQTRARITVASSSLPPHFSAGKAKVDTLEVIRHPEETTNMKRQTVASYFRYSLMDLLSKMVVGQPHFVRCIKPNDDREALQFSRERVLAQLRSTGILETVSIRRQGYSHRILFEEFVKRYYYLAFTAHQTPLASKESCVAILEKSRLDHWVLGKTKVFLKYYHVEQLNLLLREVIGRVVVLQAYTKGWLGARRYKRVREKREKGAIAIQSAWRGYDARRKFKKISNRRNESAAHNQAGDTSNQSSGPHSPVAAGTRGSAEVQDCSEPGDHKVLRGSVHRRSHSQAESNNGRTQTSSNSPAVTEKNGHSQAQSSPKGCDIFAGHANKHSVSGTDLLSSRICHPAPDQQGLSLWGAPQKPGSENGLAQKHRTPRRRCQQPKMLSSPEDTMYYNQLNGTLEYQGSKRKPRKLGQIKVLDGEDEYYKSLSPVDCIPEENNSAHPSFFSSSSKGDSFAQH

BRSK2 = molecular target: T2, BRSK2 (Homo sapiens, UniProt Q8IWQ3)
T2 sequence (Q8IWQ3 1-736): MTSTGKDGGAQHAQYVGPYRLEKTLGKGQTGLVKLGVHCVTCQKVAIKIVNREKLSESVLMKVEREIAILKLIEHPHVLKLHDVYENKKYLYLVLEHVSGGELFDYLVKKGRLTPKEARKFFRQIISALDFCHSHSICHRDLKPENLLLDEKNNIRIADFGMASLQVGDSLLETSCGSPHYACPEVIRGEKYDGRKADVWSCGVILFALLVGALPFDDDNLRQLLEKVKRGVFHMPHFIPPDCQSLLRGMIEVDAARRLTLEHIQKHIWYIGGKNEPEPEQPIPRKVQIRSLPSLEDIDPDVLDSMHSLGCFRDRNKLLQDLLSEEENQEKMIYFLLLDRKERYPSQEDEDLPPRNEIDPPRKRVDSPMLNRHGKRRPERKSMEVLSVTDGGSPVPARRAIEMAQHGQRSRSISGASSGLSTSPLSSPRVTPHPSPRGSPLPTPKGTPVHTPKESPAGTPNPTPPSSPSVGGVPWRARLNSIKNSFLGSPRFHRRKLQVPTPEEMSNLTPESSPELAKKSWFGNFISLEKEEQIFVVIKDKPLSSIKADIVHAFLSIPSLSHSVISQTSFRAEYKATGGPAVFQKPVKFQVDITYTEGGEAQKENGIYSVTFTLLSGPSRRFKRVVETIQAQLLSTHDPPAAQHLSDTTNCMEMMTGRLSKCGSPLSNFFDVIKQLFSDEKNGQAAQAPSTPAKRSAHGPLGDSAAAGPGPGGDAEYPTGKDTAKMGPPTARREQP

MST4 = molecular target: T3, MST4 (Homo sapiens, UniProt Q9P289)
T3 construct: gene STK26
T3 sequence (Q9P289 whole entry): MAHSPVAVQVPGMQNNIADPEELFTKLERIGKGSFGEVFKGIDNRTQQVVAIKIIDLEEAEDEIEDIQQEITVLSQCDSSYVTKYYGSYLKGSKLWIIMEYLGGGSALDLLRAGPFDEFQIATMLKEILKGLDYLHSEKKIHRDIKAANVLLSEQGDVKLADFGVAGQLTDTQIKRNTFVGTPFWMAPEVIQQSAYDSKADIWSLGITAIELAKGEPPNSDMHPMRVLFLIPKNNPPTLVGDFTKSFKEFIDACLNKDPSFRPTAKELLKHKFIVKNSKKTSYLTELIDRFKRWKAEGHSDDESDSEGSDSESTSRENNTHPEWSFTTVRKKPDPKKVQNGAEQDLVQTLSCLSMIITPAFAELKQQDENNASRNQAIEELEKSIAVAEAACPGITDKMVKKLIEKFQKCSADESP

[1] = read-out: Olaparib / %Ctrl @ 10000nM
[2] = read-out: Talazoparib (BMN 673) / %Ctrl @ 10000nM
[3] = read-out: Rucaparib / %Ctrl @ 10000nM, binding competition, % of control
[4] = read-out: Niraparib (MK-4827) / %Ctrl @ 10000nM

percent of control binding at 10 µM (MYO3B; [1]): 75%
percent of control binding at 10 µM (BRSK2; [1]): 95%
percent of control binding at 10 µM (MST4; [1]): 91%
SMILES: O=C(c1cc(Cc2n[nH]c(=O)c3ccccc23)ccc1F)N1CCN(C(=O)C2CC2)CC1 [Olaparib]

percent of control binding at 10 µM (MYO3B; [2]): 97%
percent of control binding at 10 µM (BRSK2; [2]): 63%
percent of control binding at 10 µM (MST4; [2]): 89%
SMILES: Cn1ncnc1[C@H]1c2n[nH]c(=O)c3cc(F)cc(c23)N[C@@H]1c1ccc(F)cc1 [Talazoparib]

percent of control binding at 10 µM (MYO3B; [3]): 62%
percent of control binding at 10 µM (BRSK2; [3]): 76%
percent of control binding at 10 µM (MST4; [3]): 67%
SMILES: CNCc1ccc(-c2[nH]c3cc(F)cc4c3c2CCNC4=O)cc1 [Rucaparib]

SMILES: NC(=O)c1cccc2cn(-c3ccc([C@@H]4CCCNC4)cc3)nc12 [Niraparib]
percent of control binding at 10 µM (MYO3B; [4]): 56%
percent of control binding at 10 µM (BRSK2; [4]): 91%
percent of control binding at 10 µM (MST4; [4]): 64%
